Key:
JAR = assay: Antiproliferative activity against human JAR cells assessed as reduction in cell viability at 10 uM by MTT assay; format: functional
[1] = Inhibition of Cy3-labeled mouse preE-let-7f-1 miRNA binding to human LIN28A (16 to 187 residues) expressed in Escherichia coli BL21 (DE3) at 75 uM preincubated for 2 hrs followed by miRNA addition and measured after 15 mins by electrophoretic mobility shift assay relative to control
[2] = Inhibition of Cy3-labeled mouse preE-let-7f-1 miRNA binding to human LIN28A (16 to 187 residues) expressed in Escherichia coli BL21 (DE3) preincubated for 2 hrs followed by miRNA addition and measured after 15 mins by electrophoretic mobility shift assay
[3] = Inhibition of FAM-labeled mouse preE-let-7f-1 miRNA binding to human LIN28A (16 to 187 residues) expressed in Escherichia coli BL21 (DE3) by fluorescence polarization assay
[4] = Inhibition of FAM-labeled mouse preE-let-7f-1 miRNA binding to human LIN28A (16 to 187 residues) expressed in Escherichia coli BL21 (DE3) preincubated for 30 mins followed by miRNA addition by fluorescence polarization assay

Structure (SMILES)	inhibition at 10 µM (JAR) [%]	inhibition [1] [%]	other results
CCOc1cccc2c1N[C@@H](c1ccc(C(=O)O)[nH]1)[C@H]1CC=C[C@@H]21	23	–	–
CCOc1cccc2c1N(C(C)=O)[C@@H](c1ccc(C(=O)O)cc1)[C@H]1CCCN(C(=O)OC(C)(C)C)[C@@H]21	35	–	–
CCOc1cccc2c1N[C@@H](C(=O)O)[C@H]1CC=C[C@@H]21	< 10	86	IC50 [2]: 21.5 µM
CCOc1cccc2c1N[C@@H](c1cccnc1)[C@H]1CC=C[C@@H]21	–	< 5	–
CCOc1cccc2c1N[C@H](c1ccc(C(=O)O)cc1)[C@@H]1CC=C[C@H]21	–	–	IC50 [3]: 40 µM
CCOc1cccc2c1N(C(C)=O)[C@@H](c1ccc(C(=O)O)cc1)[C@H]1CCCN[C@@H]21	19	–	–
O=C(O)c1cccc([C@@H]2Nc3c(OC(F)(F)F)cccc3[C@@H]3C=CC[C@@H]32)c1	20	–	–
CC(=O)c1ccc2c(c1)N[C@@H](c1ccc(C(=O)O)cc1)[C@H]1CC=C[C@@H]21	–	< 5	–
CCOC(=O)[C@@H]1Nc2c(OCC)cccc2[C@@H]2C=CC[C@H]12	–	< 5	–
COc1cccc2c1N[C@@H](c1ccc(C(=O)O)cc1)[C@H]1CC=C[C@@H]21	–	< 5	–
CCOc1cccc2c1N[C@@H](c1ccc([N+](=O)[O-])cc1)[C@H]1CC=C[C@@H]21	–	< 5	–
CCOc1cccc2c1N[C@@H](c1ccc(C(=O)O)cc1)[C@H]1CC=C[C@@H]21	< 10	53	IC50 [3]: 50 µM; IC50 [2]: 41.6 µM
CCOc1cccc2c1N[C@@H](c1cccc(C(=O)O)c1)[C@H]1CC=C[C@@H]21	< 10	86	IC50 [4]: 4 µM; IC50 [2]: 21.9 µM
CCOc1cccc2c1N[C@@H](c1ccc(C(F)(F)F)cc1)[C@H]1CC=C[C@@H]21	–	< 5	–
CC(C)Oc1cccc2c1N[C@@H](c1ccc(C(=O)O)cc1)[C@H]1CC=C[C@@H]21	–	< 5	–
CCOc1cccc2c1N[C@@H](c1ccc(C#N)cc1)[C@H]1CC=C[C@@H]21	–	< 5	–
CC(=O)c1ccc2c(c1)[C@@H]1C=CC[C@@H]1[C@H](c1ccc(C(=O)O)cc1)N2	–	< 5	–
COc1cc2c(c(OC)c1OC)[C@@H]1C=CC[C@@H]1[C@H](c1ccc(C(=O)O)cc1)N2	–	< 5	–
O=C(O)c1ccc([C@@H]2Nc3c(Cl)cc(Cl)cc3[C@@H]3C=CC[C@@H]32)cc1	–	34	–
CCOc1cccc2c1N[C@@H](c1cccc(O)c1)[C@H]1CC=C[C@@H]21	–	< 5	–
CCOc1cccc2c1N(C(C)=O)[C@@H](c1cccc(C(=O)O)c1)[C@H]1CC=C[C@@H]21	31	–	–
CCOc1cccc2c1N[C@@H](c1ccc(C(=O)OC)cc1)[C@H]1CC=C[C@@H]21	–	< 5	–
N#Cc1ccc2c(c1)[C@@H]1C=CC[C@@H]1[C@H](c1ccc(C(=O)O)cc1)N2	–	< 5	–

Source: ChEMBL document CHEMBL5154666, “Small molecules with tetrahydroquinoline-containing Povarov scaffolds as inhibitors disrupting the Protein-RNA interaction of LIN28-let-7” (Eur J Med Chem, 2022)
